These results are taken from patent US20230321106A1, “USE OF TOPICAL BRAF INHIBITOR COMPOSITIONS FOR TREATMENT OF EPIDERMAL GROWTH FACTOR RECEPTOR DOWNSTREAM EFFECTORS - INDUCED CUTANEOUS REACTIONS” (Lutris Pharma Ltd., priority 2020, published 2023).

In test [1] the test system is phosphorylated ERK1/2 (MAPK pathway) in primary adult human epidermal keratinocytes (HEKa). Kind of test: pERK induction in HEKa cells, Western blot (phosphorylated ERK1/2 / total ERK2). The format is cell-based. The note with it: 0.3 μM, two hours. As to the method:
Primary HEKa, isolated from adult skin of a single donor and cryopreserved at the end of primary culture (Gibco catalog number C0055C, Thermo Fisher Scientific, Waltham, MA), were cultured in T25 flasks at 37° C., 5% CO2 in growth medium (Epilife™ CF Kit, Gibco) supplemented with 60 μM calcium (Gibco) and HKGS (Gibco). After at least three passages, cells were harvested with trypsin when flask reached 70-80% confluence, and seeded in 10 cm culture dishes (250,000 cells/dish) in 9 ml of growth medium overnight. To analyze the effect of HKGS or a BRAF inhibitor on pERK, cells were starved for 2.5 hours in 5 mL of starvation medium without HKGS, and then individual plates were incubated for two hours with DMSO 0.1%, HKGS, vemurafenib 0.3 μM (0.146 μg/mL), or LUT014 0.3 μM (0.158 μg/mL). To analyze the effects of LUT014 to re-activate pERK in HKGS-activated HEKa cells cultured in an EGFR inhibitor, cells were seeded in 60 mm dishes (120,000 cells/dish) in 4 ml growth medium. […] The signals of phosphorylated ERK1/2 and total ERK2 were quantified using ImageJ software and the phosphorylated ERK1/2/total ERK2 ratio was calculated. For the quantification, equal sized rectangles were drawn around the bands of the phosphorylated ERK1/2 and the total ERK2 and the pixels in each rectangle were measured.
Background: In western blotting, separated proteins are transferred to a membrane and probed.

For test [2], the system named is anti-EGFR therapy-induced acneiform lesions. In words: Phase 1 clinical trial: efficacy on acneiform lesions (CTCAE, MASCC, FACT-EGFRI-13). It is filed as in vivo, human. As to the method: Three scales were used to evaluate the severity of acneiform lesions during the clinical trial period. The primary readout was based on the National Cancer Institute (NCI) Common Terminology Criteria for Adverse Events (CTCAE) version 5.0 for grading acneiform rash. The clinical trial eligibility criteria were based on having an acneiform skin rash of grade 1 or 2 while on anti-EGFR therapy, and therefore the grading change from baseline with the topical application of LUT014 was measured. The Multinational Association of Supportive Care in Cancer (MASCC) Study Group EGFR Inhibitor-dermatologic adverse event grading scale is a central reviewer-assessment based on the review of pictures provided to one remote reviewer (Wong, et al., Support Care Cancer 21, 2933-2948, 2013). The Functional Assessment of Cancer Therapy (FACT) is a health-related quality of life questionnaire to assess symptoms associated with EGFR inhibitors (Wagner, et al., Support Care Cancer 21, 1033-1041, 2013). The score based on the 13 skin-specific questions (FACT-EGFRI-13) was reported, and was calculated by the change in total score relative to baseline, with a decrease in value representing worsening and an increase value representing improvement of skin-related symptoms.
Evaluation of the preliminary efficacy of LUT014 gel for the treatment of anti-EGFR therapy-induced acneiform lesions was based on the following: A) Acneiform lesions grading performed locally by the Investigator using the NCI CTCAE version 5.0 skin and subcutaneous tissue disorders grading scale. B) Acneiform lesions grading performed by a central reader, using the MASCC Study Group EGFR Inhibitor-dermatologic adverse event grading scale (Wong, et al., 2013). Grading was based on masked photographs of patients' face, neck, and upper portion of the anterior and posterior chest. C) Patient self-reported quality of life FACT-EGFRI-13 questionnaire (Wagner et al, 2013), assessing the physical and psychological effects of the dermatological symptoms associated with anti-EGFR treatment on study patients. Only the first 13 questions of the FACT-EGFRI that are relevant for the skin were evaluated. Data from all patients who received at least one dose of study drug were included in the safety and efficacy analyses.

Molecules are shown by their SMILES.

Take `Cc1ccc2c(Nc3cccc(OC(F)(F)F)c3)nccc2c1Nc1ncccc1-c1ncnc2[nH]cnc12` [LUT014]: the “increase in pERK, compared with HKGS” value in test [1] was “higher”. Besides, the “time to CTCAE improvement” value in test [2] (cohort 1, 0.3 mg/g) is “two of the patients showing improvement within the first week”. Further, the “FACT-EGFRI-13 skin-related symptom questionnaire change” value in test [2] (cohort 1, 0.3 mg/g, 28-day treatment) is given as “the three patients had symptomatic improvement”. In addition, the “benefit after administration had terminated” value in test [2] (cohort 1, 0.3 mg/g, all three patients, day 55) is given as “sustained benefit by day 55”. In addition, the “acneiform rash CTCAE grade change” value is “all improved to grade 1” in test [2] (cohort 1, 0.3 mg/g, three patients with grade 2 at baseline, 28-day treatment); “two with grade 1 at baseline that did not change in grading” in test [2] (cohort 2, 1.0 mg/g, patients with grade 1 at baseline); “two with grade 2 at baseline that improved to grade 1” in test [2] (cohort 2, 1.0 mg/g, patients with grade 2 at baseline, 28-day treatment); “one improved, another was stable and one patient had worsening acneiform skin rash” in test [2] (cohort 3, 2.5 mg/g, three patients, 28-day treatment). In test [2] (cohort 1, 0.3 mg/g, treatment period), the “central reviewer MASCC grading change” value was “two patients improved and one patient did not change”. Moreover, the results for the “acneiform skin rash, overall” value in test [2] (cohort 2 (1.0 mg/g)) and in test [2] (highest dose cohort (2.5 mg/g)) were “evidence of acneiform rash improvement” and “no consistent evidence of improvement”, respectively. For the same molecule, the “FACT-EGFRI-13 symptom questionnaire change” value is “two patients with baseline grade 1 rash reported stable skin-related symptoms” in test [2] (cohort 2, 1.0 mg/g, baseline grade 1 rash); “two patients with baseline grade 2 rash improved symptoms” in test [2] (cohort 2, 1.0 mg/g, baseline grade 2 rash); “one patient improved and two worsened” in test [2] (cohort 3, 2.5 mg/g). In addition, the MASCC grading change entry in test [2] (cohort 2, 1.0 mg/g, four patients) is given as “three patients improved grading during the treatment period while one worsened”; in test [2] (cohort 3, 2.5 mg/g, compared with the CTCAE course), “The same course was evident”. Also, the “improvement of acneiform rash in grade 2 patients” value in test [2] (low and intermediate cohorts (0.3 and 1.0 mg/g)) was “all grade 2 patients (six patients)”. Moreover, the “acneiform skin rash, overall by three assessment criteria” value in test [2] (lowest dose cohort (0.3 mg/g)) is “improved in all patients”.
